Consider four molecules from publication PMC10818821, “Towards a New Generation of Hormone Therapies: Design, Synthesis and Biological Evaluation of Novel 1,2,3-Triazoles as Estrogen-Positive Breast Cancer Therapeutics and Non-Steroidal Aromatase Inhibitors” (Pharmaceuticals, 2024).

This test concerns the target T1, aromatase (CYP19) (Homo sapiens, UniProt P11511).
T1 construct: gene CYP19A1
T1 sequence (P11511 1-503): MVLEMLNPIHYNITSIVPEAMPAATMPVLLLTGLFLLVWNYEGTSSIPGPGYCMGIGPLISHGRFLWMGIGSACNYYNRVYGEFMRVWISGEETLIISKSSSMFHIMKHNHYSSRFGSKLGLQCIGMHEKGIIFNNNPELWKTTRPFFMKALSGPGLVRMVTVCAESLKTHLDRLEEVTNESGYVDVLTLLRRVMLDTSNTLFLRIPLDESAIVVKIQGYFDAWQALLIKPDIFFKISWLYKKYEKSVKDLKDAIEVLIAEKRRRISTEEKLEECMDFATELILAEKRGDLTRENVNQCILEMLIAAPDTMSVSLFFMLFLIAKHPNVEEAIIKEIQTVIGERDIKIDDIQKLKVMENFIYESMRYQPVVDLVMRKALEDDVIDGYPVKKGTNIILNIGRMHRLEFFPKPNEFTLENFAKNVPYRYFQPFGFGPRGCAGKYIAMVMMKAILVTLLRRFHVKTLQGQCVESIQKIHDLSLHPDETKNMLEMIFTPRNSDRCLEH
As to the kind of experiment: fluorogenic aromatase activity assay (Abcam kit), dose-response […]. The format is biochemical.
The term IC50 denotes the midpoint of a concentration-inhibition curve. A higher IC50 goes with weaker potency. In the case of `COc1ccc(-n2nnc(C(C)=NN=c3sc(C(C)=O)nn3-c3ccccc3)c2C)cc1` [compound 4, 1-(5-((1-(1-(4-Methoxyphenyl)-5-methyl-1H-1,2,3-triazol-4-yl)ethylidene)hydrazono)-4-phenyl-4,5-dihydro-1,3,4-thiadiazol-2-yl)ethan-1-one], half-maximal inhibition (IC50) was put at 3.62 µM.

The molecule `COc1ccc(-n2nnc(C(C)=NN=c3sc(C(C)=O)nn3-c3ccc(C)cc3)c2C)cc1` [compound 5, 1-(5-((1-(1-(4-Methoxyphenyl)-5-methyl-1H-1,2,3-triazol-4-yl)ethylidene)hydrazono)-4-(p-tolyl)-4,5-dihydro-1,3,4-thiadiazol-2-yl)ethan-1-one] returned a half-maximal inhibitory concentration (IC50) of 1.99 µM. As for `CCOC(=O)c1nn(-c2ccccc2)c(=NN=C(C)c2nnn(-c3ccc(OC)cc3)c2C)s1` [compound 6, Ethyl 5-((1-(1-(4-Methoxyphenyl)-5-methyl-1H-1,2,3-triazol-4-yl)ethylidene)hydrazono)-4-phenyl-4,5-dihydro-1,3,4-thiadiazole-2-carboxylate], the figure is 3.57 µM; as for `CCOC(=O)c1nn(-c2ccc(C)cc2)c(=NN=C(C)c2nnn(-c3ccc(OC)cc3)c2C)s1` [compound 7, Ethyl 5-((1-(1-(4-Methoxyphenyl)-5-methyl-1H-1,2,3-triazol-4-yl)ethylidene) hydrazono)-4-(p-tolyl)-4,5-dihydro-1,3,4-thiadiazole-2-carboxylate], 2.99 µM.
